Assay results: patent US20160312179A1 (GLAXOSMITHKLINE INTELLECHTUAL PROPERTY (NO.2) LIMITED, priority 2013, published 2016)
“Also recorded” adds a separate entry of the source.

How the values were obtained:
Assay type in all cases: cell-based, Chinese hamster
DG44 CHO [1] = experiment: Dose response study of TCA intermediates in fed-batch shake flasks: viable cell concentration / viability; conditions: for effect on cell growth / viable cell concentration after addition: dose response, all concentrations tested, compared to control culture
Source text: (§1) Several TCA cycle intermediates were selected for a dose response experiment based on commercial availability, either the acid or its sodium salt were purchased from Sigma Aldrich to prepare stock solution feeds to be used in the study.
(§2) FIG. 1 summarizes the TCA cycle components tested and their location in the pathway. Table 1 summarizes the operation condition of shake flasks in the study as well as feed schedules for the dose response study.
(§3) Control shake flasks were set up every time an arm of the study started. Those control shake flasks were fed-batch cultures without addition of any TCA intermediate. All conditions tested were executed in duplicate shake flasks.
(§4) Shake flask cultures were sampled every other day to determine Total Cell Concentration (TCC), Viable Cell Concentration (VCC), cell viability, metabolite (glucose, lactate, glutamine, glutamate, and ammonia) concentration, and osmolality. The master sample was divided into cell-based assays (TCC, viability assays) and cell-free assays (metabolite concentration, osmolality). Back-up samples (cell-free supernatants) for future reference were produced by centrifuging a portion of the master sample and aliquoting 1.8 mL in Nunc cryovials which were subsequently stored at −70° C. Titer was determined on samples filtered through a 0.22 μm-filter.
(§5) TCC, VCC and viability were determined using an automated cell counter based on the trypan blue exclusion method (ViCell XR, Beckman Coulter). Samples were pre-treated with protease prior to cell counting (TripLE, Life Technologies, USA) using equal volumes of protease stock solution and culture. Incubation to allow dissociation was carried out for 20-25 minutes at 37° C. under gentle shaking Metabolites were measured using Nova Bioprofile (Nova Bioprofile 400); which operates on enzyme-based electrochemical reactions. Osmolality measurement was based on the freezing-point depression method (Advanced Instruments, Model N/A). Filtered cell-free samples were sent to the Bioanalytical Development group for antibody accumulation and binding activity determination (Biacore).

DG44 CHO [2] = experiment: Dose response study in shake flasks: ammonia (NH4+) accumulation and production; conditions: for effect on ammonia (NH4+) accumulation: dose response, intermediate used alone, compared to control culture
Protocol: as §1, with “study. Selected compounds were pyruvic acid, citric acid, α-ketoglutaric acid, fumaric acid, malic acid (or sodium salts), and oxaloacetic acid (no sodium salt available).” for “study.”
as §2, with “Oxaloacetic acid and malic acid were added to the culture to a final concentration of 5 mM, 10 mM and 15 mM. […] FIG.” for “FIG.”
as §3, §4, §5

DG44 CHO [3] = experiment: DOE interaction study in shake flasks: ammonia (NH4+) accumulation and production; conditions: for effect on ammonia (NH4+) generation / accumulation: single intermediate at selected concentration
Protocol: The experiment to test interactions of all the selected components was carried out in two blocks. Each one of the blocks was designed to contain center points and control shake flasks (batch cultures, no addition of any component). […] All conditions were run in duplicates. Shake flask cultures were sampled every other day to determine Total Cell Concentration (TCC), Viable Cell Concentration (VCC), cell viability, metabolite (glucose, lactate, glutamine, glutamate, and ammonia) concentration, and osmolality. The master sample was divided into cell-based assays (TCC, viability assays) and cell-free assays (metabolite concentration, osmolality). Back-up samples (cell-free supernatants) for future reference were produced by centrifuging a portion of the master sample and aliquoting 1.8 mL in Nunc cryovials which were subsequently stored at −70° C. Titer was determined on samples filtered through a 0.22 μm-filter. TCC, VCC and viability were determined using an automated cell counter based on the trypan blue exclusion method (ViCell XR, Beckman Coulter). Samples were pre-treated with protease prior to cell counting (TripLE, Life Technologies, USA) using equal volumes of protease stock solution and culture. Incubation to allow dissociation was carried out for 20-25 minutes at 37° C. under gentle shaking Metabolites were measured using Nova Bioprofile (Nova Bioprofile 400); which operates on enzyme-based electrochemical reactions. Osmolality measurement was based on the freezing-point depression method (Advanced Instruments, Model N/A). Filtered cell-free samples were sent to the Bioanalytical Development group for antibody accumulation and binding activity determination (Biacore).

DG44 CHO [4] = experiment: Dose response study in shake flasks: cell-specific productivity
Protocol: as §1, with “study. Selected compounds were pyruvic acid, citric acid, α-ketoglutaric acid, fumaric acid, malic acid (or sodium salts), and oxaloacetic acid (no sodium salt available).” for “study.”
as §2, with “Oxaloacetic acid and malic acid were added to the culture to a final concentration of 5 mM, 10 mM and 15 mM. […] FIG.” for “FIG.”
as §3
as §4, with “Back-up samples (cell-free supernatants) for future reference were produced by centrifuging a portion of the master sample and aliquoting 1.8 mL in Nunc cryovials which were subsequently stored at −70° C.” left out
(§6) TCC, VCC and viability were determined using an automated cell counter based on the trypan blue exclusion method (ViCell XR, Beckman Coulter). […] Incubation to allow dissociation was carried out for 20-25 minutes at 37° C. under gentle shaking Metabolites were measured using Nova Bioprofile (Nova Bioprofile 400); which operates on enzyme-based electrochemical reactions. […]
Integral of Viable Cells was calculated using VCC data and applying the trapezoid rule following the formula,
Specific Productivity was calculated using the last titer data point divided by last calculated IVC value.

DG44 CHO [5] = experiment: Dose response study in shake flasks: lactate accumulation; conditions: 45 mM added to the culture
Protocol: as §1, with “study. Selected compounds were pyruvic acid, citric acid, α-ketoglutaric acid, fumaric acid, malic acid (or sodium salts), and oxaloacetic acid (no sodium salt available).” for “study.”
as §2, with “Oxaloacetic acid and malic acid were added to the culture to a final concentration of 5 mM, 10 mM and 15 mM. […] FIG.” for “FIG.”, “study. […]” for “study.”
Shake flask cultures were sampled every other day to determine Total Cell Concentration (TCC), Viable Cell Concentration (VCC), cell viability, metabolite (glucose, lactate, glutamine, glutamate, and ammonia) concentration, and osmolality. […] Titer was determined on samples filtered through a 0.22 μm-filter.
as §6

DG44 CHO [6] = experiment: DOE interaction study in shake flasks: cell-specific productivity; conditions: 20 mM, alone
Protocol: The experiment to test interactions of all the selected components was carried out in two blocks. Each one of the blocks was designed to contain center points and control shake flasks (batch cultures, no addition of any component). […] All conditions were run in duplicates. Shake flask cultures were sampled every other day to determine Total Cell Concentration (TCC), Viable Cell Concentration (VCC), cell viability, metabolite (glucose, lactate, glutamine, glutamate, and ammonia) concentration, and osmolality. The master sample was divided into cell-based assays (TCC, viability assays) and cell-free assays (metabolite concentration, osmolality). […] Titer was determined on samples filtered through a 0.22 μm-filter. TCC, VCC and viability were determined using an automated cell counter based on the trypan blue exclusion method (ViCell XR, Beckman Coulter). […] Incubation to allow dissociation was carried out for 20-25 minutes at 37° C. under gentle shaking Metabolites were measured using Nova Bioprofile (Nova Bioprofile 400); which operates on enzyme-based electrochemical reactions. […] Integral of Viable Cells was calculated using VCC data and applying the trapezoid rule following the formula, Specific Productivity was calculated using the last titer data point divided by last calculated IVC value.

For `O=C(O)CC(O)(CC(=O)O)C(=O)O` [citric acid], the “effect on cell growth / viable cell concentration after addition” value (DG44 CHO [1]) was “deleterious effects on culture”.
`O=C(O)/C=C/C(=O)O` [fumaric acid] was tested, and the “doses needed to stabilize ammonia production (and accumulation)” value (DG44 CHO [2]; after Day 10 of culture) was 30 mM and 45 mM, the “effect on ammonia (NH4+) accumulation” value (DG44 CHO [2]) was “only partial effect” and the “effect on ammonia (NH4+) generation / accumulation” value (DG44 CHO [3]) was “slows down”. For the same compound, the “effect on cell growth / viable cell concentration after addition” value (DG44 CHO [1]) was “reduced cell growth”.
With `O=C(O)CC(O)C(=O)O` (stereo not shown) [malic acid] the “effect on NH4+ accumulation or production” value (DG44 CHO [2]; 5 mM) was “not a clear effect”, the “effect on ammonia (NH4+) generation / accumulation” value (DG44 CHO [3]) was “suppress ammonia generation for a few days” and the “effect on ammonia (NH4+) generation / accumulation” value (DG44 CHO [3]; listed as malate) was “partially reduced”. For the same compound, the “decline in viability compared to control shake flasks” value (DG44 CHO [1]; 5 mM) was “no decline in viability”, the decline in viability (DG44 CHO [1]; 30 mM) was “fastest decline in viability” and the “concentrations toxic to cells” value (DG44 CHO [1]; dose response experiment) was “higher than 5 mM”. The “cell viability of the culture” value (DG44 CHO [1]; high concentration (15 mM and 30 mM)) was “induced loss of cell viability”.
In the case of `O=C(O)CC(=O)C(=O)O` [oxaloacetic acid], the “cell-specific production rate and NH4+ accumulation” value (DG44 CHO [2]; 10 mM and 15 mM) was “reduce”, the “concentrations in the culture that control ammonia and maintain cell-specific productivity” value (DG44 CHO [2]; dose response conclusion) was 5 to 15 mM and the “effect on ammonia (NH4+) accumulation” value (DG44 CHO [2]) was “reduction in the ammonia accumulation levels”. The “effect on ammonia (NH4+) generation / accumulation” value (DG44 CHO [3]) was “partially reduced”, the “effect on final cell-specific productivity” value (DG44 CHO [4]; dose response, compared to control) was “sustained cell-specific productivity values” and the “effect on cell growth / viable cell concentration after addition” value (DG44 CHO [1]) was “did not have any deleterious effect on cell growth”.
With `CC(=O)C(=O)O` [pyruvic acid] the “ammonia accumulated, compared to control shake flasks” value (DG44 CHO [2]; 15 mM) was “slightly higher level than that found in control shake flasks”, the “effect on the reduction of ammonia” value (DG44 CHO [2]; 15 mM) was “minor effect on the reduction of ammonia” and the “ammonia accumulated to” value (DG44 CHO [2]; 30 mM) was 8 mM. For the same compound, the “ammonia consumption effect lasted to culture day” value (DG44 CHO [2]; 30 mM) was 8 days, the “ammonia consumption induced up to culture day” value (DG44 CHO [2]; 45 mM added on Day 5) was 10 days and the final ammonia concentration (DG44 CHO [2]; 45 mM added on Day 5) was 7 mM. The “effect on ammonia (NH4+) accumulation” value (DG44 CHO [2]) was “dependent on the dose, but the effect lasts only for a few days”, the lactate accumulation (DG44 CHO [5]) was “around 3 g/L” and the “effect on ammonia (NH4+) generation / accumulation” value (DG44 CHO [3]) was “suppress ammonia generation for a few days”. The “effect on ammonia (NH4+) generation / accumulation” value (DG44 CHO [3]; listed as pyruvate) was “partially reduced” and the cell-specific productivity (DG44 CHO [4]; 45 mM, control averaged 31 pg/cell/day) was about 24 pg/cell/day.
`O=C(O)CCC(=O)C(=O)O` [α-ketoglutaric acid] was tested, and the “most effective concentration to reduce production of NH4+” value (DG44 CHO [2]; 15, 30, 45 mM tested) was 45 mM, the “cell-specific NH4+ production rate” value (DG44 CHO [2]; all concentrations tested) was “reduced” and the “effect on ammonia (NH4+) accumulation” value (DG44 CHO [2]; listed as α-KG) was “reduced; also recorded: most effective”. The “effect on ammonia generation” value (DG44 CHO [3]; 20 mM, alone) was “control ammonia generation”, the “effect on ammonia (NH4+) generation / accumulation” value (DG44 CHO [3]) was “consumed” and the “reduction of the cell-specific productivity compared to the control” value (DG44 CHO [4]; used alone (FIGS. 21 and 22)) was 10-20%. The “effect on cell growth / viable cell concentration after addition” value (DG44 CHO [1]) was “cell division seems to stop” and the cell-specific productivity (DG44 CHO [6]) was about 30 pg/cell/day.
